#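 Five concentrations, 48 hours, 96-well plates. The concentration for 50% growth inhibition is given as GI50. TGI is the concentration that stops growth completely.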
# How the values were obtained:
# Assay in all cases: inhibition of tumour cell growth, NCI panel, 48 h
# UACC-62 melanoma = test system: UACC-62 melanoma
# ACHN renal = test system: ACHN renal
# SNB-75 CNS = test system: SNB-75 CNS
# IGROV1 ovarian = test system: IGROV1 ovarian
# SK-MEL-5 melanoma = test system: SK-MEL-5 melanoma
# SF-295 CNS = test system: SF-295 CNS
# U251 CNS = test system: U251 CNS
# HOP-92 NSCLC = test system: HOP-92 NSCLC
# DU-145 prostate = test system: DU-145 prostate
# UACC-257 melanoma = test system: UACC-257 melanoma
# CAKI-1 renal = test system: CAKI-1 renal
# HS 578T breast = test system: HS 578T breast
# MCF7 breast = test system: MCF7 breast
# T-47D breast = test system: T-47D breast
# 786-0 renal = test system: 786-0 renal
# NCI-H23 lung = test system: NCI-H23 lung
# HT29 colon = test system: HT29 colon
# OVCAR-8 ovarian = test system: OVCAR-8 ovarian
# MOLT-4 leukemia = test system: MOLT-4 leukemia
# K-562 leukemia = test system: K-562 leukemia
# HOP-62 NSCLC = test system: HOP-62 NSCLC
# OVCAR-5 ovarian = test system: OVCAR-5 ovarian
# NCI-H226 lung = test system: NCI-H226 lung
# A549 NSCLC = test system: A549 NSCLC
# MDA-MB-435 = test system: MDA-MB-435
# SN12C renal = test system: SN12C renal
# MALME-3M melanoma = test system: MALME-3M melanoma
# HL-60(TB) leukemia = test system: HL-60(TB) leukemia
# CCRF-CEM leukemia = test system: CCRF-CEM leukemia
smiles,measurement,setting,value
Cc1ccc(C(SCCNCc2cc(N(C)C)ccn2)(c2ccccc2)c2ccccc2)cc1,TGI,UACC-62 melanoma,21.8 µM
same,GI50,ACHN renal,4.72 µM
same,TGI,ACHN renal,17.3 µM
same,GI50,SNB-75 CNS,1.96 µM
same,TGI,SNB-75 CNS,12.4 µM
same,GI50,IGROV1 ovarian,3.81 µM
same,TGI,IGROV1 ovarian,16.1 µM
same,GI50,SK-MEL-5 melanoma,3.59 µM
same,TGI,SK-MEL-5 melanoma,12.8 µM
same,GI50,SF-295 CNS,1.46 µM
same,TGI,SF-295 CNS,2.86 µM
same,GI50,U251 CNS,2.69 µM
same,TGI,U251 CNS,10.4 µM
same,GI50,HOP-92 NSCLC,1.85 µM
same,TGI,HOP-92 NSCLC,8.82 µM
same,GI50,DU-145 prostate,3.54 µM
same,TGI,DU-145 prostate,12.5 µM
same,GI50,UACC-257 melanoma,4.27 µM
same,TGI,UACC-257 melanoma,15.4 µM
same,GI50,CAKI-1 renal,3.28 µM
same,TGI,CAKI-1 renal,15.5 µM
same,GI50,HS 578T breast,2.58 µM
same,TGI,HS 578T breast,10.5 µM
same,GI50,MCF7 breast,0.373 µM
same,TGI,MCF7 breast,1.57 µM
same,GI50,T-47D breast,2.81 µM
same,TGI,T-47D breast,11 µM
same,GI50,786-0 renal,1.88 µM
same,TGI,786-0 renal,3.83 µM
same,GI50,NCI-H23 lung,1.72 µM
same,TGI,NCI-H23 lung,3.32 µM
same,GI50,HT29 colon,1.98 µM
same,TGI,HT29 colon,4.17 µM
same,GI50,OVCAR-8 ovarian,3.3 µM
same,TGI,OVCAR-8 ovarian,20 µM
same,GI50,MOLT-4 leukemia,2.38 µM
same,TGI,MOLT-4 leukemia,6.9 µM
same,GI50,K-562 leukemia,2.22 µM
same,TGI,K-562 leukemia,7.73 µM
same,GI50,HOP-62 NSCLC,3.26 µM
same,TGI,HOP-62 NSCLC,14.3 µM
same,GI50,OVCAR-5 ovarian,5.19 µM
same,TGI,OVCAR-5 ovarian,17.9 µM
same,GI50,NCI-H226 lung,14 µM
same,TGI,NCI-H226 lung,28.1 µM
same,GI50,A549 NSCLC,4.13 µM
same,TGI,A549 NSCLC,18 µM
same,GI50,MDA-MB-435,1.55 µM
same,TGI,MDA-MB-435,4.67 µM
same,GI50,SN12C renal,3.94 µM
same,TGI,SN12C renal,14.6 µM
same,GI50,MALME-3M melanoma,1.75 µM
same,TGI,MALME-3M melanoma,3.29 µM
same,GI50,HL-60(TB) leukemia,1.73 µM
same,TGI,HL-60(TB) leukemia,4.19 µM
same,GI50,CCRF-CEM leukemia,2.03 µM
same,TGI,CCRF-CEM leukemia,8.53 µM

# From PubChem BioAssay (NCI)
